Source: patent US20070043049A1, “Substituted heterocyclic diarylamine analogues” (Neurogen Corporation, priority 2003, published 2007)

Molecular target: T1, human capsaicin receptor (Homo sapiens, UniProt Q8NER1)
T1 construct: pBK-CMV expression construct encoding the full length human capsaicin receptor; expressed in transfected cells
Assay: Calcium mobilization assay, determination of antagonist activity (Example 6)
Format: cell-based
Details: 50% decrease in fluorescence response of cells expressing human capsaicin receptor exposed to capsaicin
Method in brief: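 HEK293 cells stably expressing full-length human capsaicin receptor, Fluo-3 AM loaded, preincubated with compound 0.5–6 h at room temperature in KRH buffer pH 7.4. Challenged with capsaicin at its EC50; FLIPR fluorescence read. IC50 is concentration halving the capsaicin-induced calcium response.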

T1 sequence (Q8NER1 whole entry): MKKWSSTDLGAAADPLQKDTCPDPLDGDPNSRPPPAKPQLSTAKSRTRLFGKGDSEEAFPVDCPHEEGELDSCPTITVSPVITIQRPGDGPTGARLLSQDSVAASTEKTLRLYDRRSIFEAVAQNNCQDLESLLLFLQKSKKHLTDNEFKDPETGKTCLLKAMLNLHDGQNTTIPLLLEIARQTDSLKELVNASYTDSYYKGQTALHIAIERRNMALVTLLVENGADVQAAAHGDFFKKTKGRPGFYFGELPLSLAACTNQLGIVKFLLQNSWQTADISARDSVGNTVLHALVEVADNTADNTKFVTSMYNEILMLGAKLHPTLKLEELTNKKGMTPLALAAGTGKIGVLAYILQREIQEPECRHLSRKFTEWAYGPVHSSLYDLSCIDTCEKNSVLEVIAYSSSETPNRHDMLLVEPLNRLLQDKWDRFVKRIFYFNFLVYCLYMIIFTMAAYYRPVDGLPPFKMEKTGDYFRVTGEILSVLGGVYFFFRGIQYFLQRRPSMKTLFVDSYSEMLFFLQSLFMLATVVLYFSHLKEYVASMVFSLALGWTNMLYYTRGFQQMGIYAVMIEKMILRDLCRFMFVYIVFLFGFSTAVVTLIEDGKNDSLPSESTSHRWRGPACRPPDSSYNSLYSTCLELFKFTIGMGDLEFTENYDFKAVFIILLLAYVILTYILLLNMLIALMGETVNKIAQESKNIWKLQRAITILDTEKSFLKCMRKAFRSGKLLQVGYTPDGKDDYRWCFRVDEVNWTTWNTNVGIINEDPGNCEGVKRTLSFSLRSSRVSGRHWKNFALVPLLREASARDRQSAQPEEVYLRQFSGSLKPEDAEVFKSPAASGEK

IC50 | Structure (SMILES)
≤ 1 µM | C[C@H]1CN(c2ncccc2C(F)(F)F)CCN1c1nc(Cl)nc(Nc2ccc(C(F)(F)F)cc2)n1 [Compound 13, {4-Chloro-6-[2-methyl-4-(3-trifluoromethyl-pyridin-2-yl)-piperazin-1-yl]-[1,3,5]triazin-2-yl}-(4-trifluoromethyl-phenyl)-amine (S)]
≤ 1 µM | C[C@@H]1CN(c2ncccc2Cl)CCN1c1nc(Nc2ccc(C(F)(F)F)cc2)nc(N(C)C)n1 [Compound 18, 6-[4-(3-Chloro-pyridin-2-yl)-2-methyl-piperazin-1-yl]-N,N-dimethyl-N′-(4-trifluoromethyl-phenyl)-[1,3,5]triazine-2,4-diamine (R)]
≤ 1 µM | C[C@@H]1CN(c2ncccc2Cl)CCN1c1nc(Nc2ccc(F)c(F)c2)nc(N2CCOCC2)n1 [Compound 101, {4-[4-(3-Chloro-pyridin-2-yl)-2-methyl-piperazin-1-yl]-6-morpholin-4-yl-[1,3,5]triazin-2-yl}-(3,4-difluoro-phenyl)-amine (R)]
≤ 1 µM | C[C@H]1CN(c2ncccc2C(F)(F)F)CCN1c1nc(Nc2ccc(C(F)(F)F)cc2)nc(-c2ccc(C(F)(F)F)cc2)n1 [Compound 14, [4-[2-Methyl-4-(3-trifluoromethyl-pyridin-2-yl)-piperazin-1-yl]-6-(4-trifluoromethyl-phenyl)-[1,3,5]triazin-2-yl]-(4-trifluoromethyl-phenyl)-amine (S)]
≤ 1 µM | FC(F)(F)c1cccnc1N1CCN(c2nc(Nc3ccc(Cl)cc3)nc(N3CCOCC3)n2)CC1 [Compound 63, (4-Chloro-phenyl)-{4-morpholin-4-yl-6-[4-(3-trifluoromethyl-pyridin-2-yl)-piperazin-1-yl]-[1,3,5]triazin-2-yl}-amine]
≤ 1 µM | CCN(c1nc(Nc2ccc(C(F)(F)F)cc2)nc(N2CCN(c3ncccc3Cl)CC2)n1)C(C)C [Compound 50, 6-[4-(3-Chloro-pyridin-2-yl)-piperazin-1-yl]-N-ethyl-N-isopropyl-N′-(4-trifluoromethyl-phenyl)-[1,3,5]triazine-2,4-diamine]
≤ 1 µM | CC(C)N(C)c1nc(Nc2ccc(C(F)(F)F)cc2)nc(N2CCN(c3ncccc3Cl)C[C@H]2C)n1 [Compound 35, 6-[4-(3-Chloro-pyridin-2-yl)-2-methyl-piperazin-1-yl]-N-isopropyl-N-methyl-N′-(4-trifluoromethyl-phenyl)-[1,3,5]triazine-2,4-diamine (R)]
≤ 1 µM | CN(C)c1nc(Nc2ccc(C(F)(F)F)cc2)nc(N2CCN(c3ncccc3C(F)(F)F)CC2)n1 [Compound 20, N,N-Dimethyl-N′-(4-trifluoromethyl-phenyl)-6-[4-(3-trifluoromethyl-pyridin-2-yl)-piperazin-1-yl]-[1,3,5]triazine-2,4-diamine]
≤ 1 µM | Fc1ccc(Nc2nc(N3CCOCC3)cc(N3CCN(c4ncccc4C(F)(F)F)CC3)n2)cc1 [Compound 83, (4-Fluoro-phenyl)-{4-morpholin-4-yl-6-[4-(3-trifluoromethyl-pyridin-2-yl)-piperazin-1-yl]-pyrimidin-2-yl}-amine]
≤ 1 µM | Clc1cccnc1N1CCN(c2nc(Nc3ccccc3)nc(N3CCOCC3)n2)CC1 [Compound 97, {4-[4-(3-Chloro-pyridin-2-yl)-piperazin-1-yl]-6-morpholin-4-yl-[1,3,5]triazin-2-yl}-phenyl-amine]
≤ 1 µM | CC(C)(C)c1ccc(Nc2nc(OCc3ccccc3C(F)(F)F)nc(N3CCN(c4ccccn4)CC3)n2)cc1 [Compound 11, (4-tert-Butyl-phenyl)-[4-(4-pyridin-2-yl-piperazin-1-yl)-6-(2-trifluoromethyl-benzyloxy)-[1,3,5]triazin-2-yl]-amine]
